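Method: 48-hour compound exposure of cells in 96-well plates, five concentrations, linear interpolation of endpoints. The concentration for 50% growth inhibition is given as GI50.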 The source made the active and inactive calls. Rule as the data show it: active = GI50 up to about 1.1 µM and inactive = higher.
What was measured:
Assay in all cases: NCI-60 cell line screen, 48 h
BT-549 = tested on: BT-549
CAKI-1 = tested on: CAKI-1
UO-31 = tested on: UO-31
MDA-MB-435 = tested on: MDA-MB-435
OVCAR-5 = tested on: OVCAR-5
NCI-H226 = tested on: NCI-H226
RPMI-8226 = tested on: RPMI-8226
MDA-N = tested on: MDA-N
COLO 205 = tested on: COLO 205
IGROV-1 = tested on: IGROV-1
HCT-15 = tested on: HCT-15
MOLT-4 = tested on: MOLT-4
HL-60 = tested on: HL-60
HOP-62 = tested on: HOP-62
MCF7 = tested on: MCF7
NCI/ADR-RES = tested on: NCI/ADR-RES
SR = tested on: SR
K562 = tested on: K562
EKVX = tested on: EKVX
SW-620 = tested on: SW-620
DU-145 = tested on: DU-145
SK-MEL-28 = tested on: SK-MEL-28
RXF 393 = tested on: RXF 393
SF-539 = tested on: SF-539
NCI-H460 = tested on: NCI-H460
SK-MEL-5 = tested on: SK-MEL-5
SN12C = tested on: SN12C
MDA-MB-231 = tested on: MDA-MB-231
SK-MEL-2 = tested on: SK-MEL-2
M14 = tested on: M14
PC-3 = tested on: PC-3
HOP-92 = tested on: HOP-92
OVCAR-3 = tested on: OVCAR-3
ACHN = tested on: ACHN
SF-295 = tested on: SF-295
A498 = tested on: A498
NCI-H522 = tested on: NCI-H522
TK-10 = tested on: TK-10
786-0 = tested on: 786-0
HCT-116 = tested on: HCT-116
Malme-3M = tested on: Malme-3M
OVCAR-4 = tested on: OVCAR-4
LOX IMVI = tested on: LOX IMVI
SK-OV-3 = tested on: SK-OV-3
T47D = tested on: T47D
HCC 2998 = tested on: HCC 2998
HT-29 = tested on: HT-29
OVCAR-8 = tested on: OVCAR-8
A549 = tested on: A549
UACC-62 = tested on: UACC-62
CCRF-CEM = tested on: CCRF-CEM
UACC-257 = tested on: UACC-257
SNB-19 = tested on: SNB-19
U-251 = tested on: U-251
NCI-H23 = tested on: NCI-H23
KM12 = tested on: KM12
SF-268 = tested on: SF-268
Hs-578T = tested on: Hs-578T

In the case of `COC(=O)C1C(=O)C=CN([C@H](C)c2ccccc2)[C@@H]1Cc1ccc(OC)c(OCc2ccccc2)c1I` (stereo partly specified), the GI50 (BT-549) is reported as 18.3 µM (inactive), the GI50 (CAKI-1) is reported as 22 µM (inactive) and the GI50 (UO-31) is reported as 12 µM (inactive). For the same molecule, the GI50 (MDA-MB-435) was 17 µM (inactive), the GI50 (OVCAR-5) was 27.4 µM (inactive) and the GI50 (NCI-H226) was 15.8 µM (inactive). For the same molecule, the GI50 (RPMI-8226) was 14.9 µM (inactive), the GI50 (MDA-N) was 15.6 µM (inactive) and the GI50 (COLO 205) was 14.9 µM (inactive). The GI50 (IGROV-1) was 10.2 µM (inactive), the GI50 (HCT-15) was 7.1 µM and the GI50 (MOLT-4) was 8.79 µM (inactive). For the same molecule, the GI50 (HL-60) was 17.3 µM (inactive), the GI50 (HOP-62) was 20.4 µM (inactive) and the GI50 (MCF7) was 17.6 µM (inactive). For the same molecule, the GI50 (NCI/ADR-RES) was 11.1 µM (inactive), the GI50 (SR) was 3.14 µM (inactive) and the GI50 (K562) was 18.2 µM (inactive). The GI50 (EKVX) was 23.6 µM (inactive), the GI50 (SW-620) was 27.7 µM (inactive) and the GI50 (DU-145) was 18.2 µM (inactive). The GI50 (SK-MEL-28) was 40.6 µM (inactive), the GI50 (RXF 393) was 11.8 µM (inactive) and the GI50 (SF-539) was 19.4 µM (inactive). The GI50 (NCI-H460) was 15.5 µM (inactive), the GI50 (SK-MEL-5) was 13.5 µM (inactive) and the GI50 (SN12C) was 14.3 µM (inactive). For the same molecule, the GI50 (MDA-MB-231) was 18.3 µM (inactive), the GI50 (SK-MEL-2) was 18.9 µM (inactive) and the GI50 (M14) was 14.5 µM (inactive). For the same molecule, the GI50 (PC-3) was 13.8 µM (inactive), the GI50 (HOP-92) was 3.3 µM (inactive) and the GI50 (OVCAR-3) was 14.6 µM (inactive). The GI50 (ACHN) was 23.2 µM (inactive), the GI50 (SF-295) was 16.9 µM (inactive) and the GI50 (A498) was 14.5 µM (inactive). For the same molecule, the GI50 (NCI-H522) was 13.6 µM (inactive), the GI50 (TK-10) was 23.7 µM (inactive) and the GI50 (786-0) was 16.4 µM (inactive). For the same molecule, the GI50 (HCT-116) was 11.7 µM (inactive), the GI50 (Malme-3M) was 24.4 µM (inactive) and the GI50 (OVCAR-4) was 8.83 µM (inactive). For the same molecule, the GI50 (LOX IMVI) was 14.5 µM (inactive), the GI50 (SK-OV-3) was 34 µM (inactive) and the GI50 (T47D) was 13.8 µM (inactive). The GI50 (HCC 2998) was 14.3 µM (inactive), the GI50 (HT-29) was 10 µM (inactive) and the GI50 (OVCAR-8) was 18.3 µM (inactive). For the same molecule, the GI50 (A549) was 15.6 µM (inactive), the GI50 (UACC-62) was 12.3 µM (inactive) and the GI50 (CCRF-CEM) was 24.5 µM (inactive). For the same molecule, the GI50 (UACC-257) was 18.2 µM (inactive), the GI50 (SNB-19) was 15 µM (inactive) and the GI50 (U-251) was 17.5 µM (inactive). The GI50 (NCI-H23) was 17 µM (inactive), the GI50 (KM12) was 19.2 µM (inactive) and the GI50 (SF-268) was 14.9 µM (inactive). The GI50 (Hs-578T) was 17.5 µM (inactive).
With `NS(=O)(=O)c1ccc(Nc2c3ccccc3nc3c(C(=O)NCCO)cccc23)cc1` the GI50 (BT-549) was 0.145 µM (active), the GI50 (CAKI-1) was 0.198 µM (active) and the GI50 (UO-31) was 0.181 µM (active). For the same molecule, the GI50 (MDA-MB-435) was 0.203 µM (active), the GI50 (OVCAR-5) was 0.183 µM (active) and the GI50 (NCI-H226) was 0.113 µM (active). The GI50 (RPMI-8226) was 0.0676 µM (active), the GI50 (MDA-N) was 0.196 µM (active) and the GI50 (COLO 205) was 0.0762 µM (active). The GI50 (IGROV-1) was 0.115 µM (active), the GI50 (HCT-15) was 0.169 µM and the GI50 (MOLT-4) was 0.0241 µM (active). The GI50 (HL-60) was 0.243 µM (active), the GI50 (HOP-62) was 0.167 µM (active) and the GI50 (MCF7) was 0.0373 µM (active). For the same molecule, the GI50 (NCI/ADR-RES) was 0.408 µM (active), the GI50 (SR) was 0.0128 µM (active) and the GI50 (K562) was 0.13 µM (active). For the same molecule, the GI50 (EKVX) was 0.251 µM (active), the GI50 (SW-620) was 0.118 µM (active) and the GI50 (DU-145) was 0.165 µM (active). For the same molecule, the GI50 (SK-MEL-28) was 0.167 µM (active), the GI50 (RXF 393) was 0.0857 µM (active) and the GI50 (SF-539) was 0.131 µM (active). The GI50 (NCI-H460) was 0.0439 µM (active), the GI50 (SK-MEL-5) was 0.0853 µM (active) and the GI50 (SN12C) was 0.176 µM (active). For the same molecule, the GI50 (MDA-MB-231) was 0.184 µM (active), the GI50 (SK-MEL-2) was 0.186 µM (active) and the GI50 (M14) was 0.182 µM (active). For the same molecule, the GI50 (PC-3) was 0.177 µM (active), the GI50 (HOP-92) was 0.148 µM (active) and the GI50 (OVCAR-3) was 0.12 µM (active). The GI50 (ACHN) was 0.252 µM (active), the GI50 (SF-295) was 0.191 µM (active) and the GI50 (A498) was 0.105 µM (active). The GI50 (NCI-H522) was 0.127 µM (active), the GI50 (TK-10) was 0.27 µM (active) and the GI50 (786-0) was 0.145 µM (active). The GI50 (HCT-116) was 0.149 µM (active), the GI50 (Malme-3M) was 0.13 µM (active) and the GI50 (OVCAR-4) was 0.195 µM (active). The GI50 (LOX IMVI) was 0.124 µM (active), the GI50 (SK-OV-3) was 0.201 µM (active) and the GI50 (T47D) was 0.03 µM (active). For the same molecule, the GI50 (HCC 2998) was 0.182 µM (active), the GI50 (HT-29) was 0.16 µM (active) and the GI50 (OVCAR-8) was 0.173 µM (active). For the same molecule, the GI50 (A549) was 0.178 µM (active), the GI50 (UACC-62) was 0.135 µM (active) and the GI50 (CCRF-CEM) was 0.0335 µM (active). For the same molecule, the GI50 (UACC-257) was 0.17 µM (active), the GI50 (SNB-19) was 0.0977 µM (active) and the GI50 (U-251) was 0.0728 µM (active). For the same molecule, the GI50 (NCI-H23) was 0.132 µM (active), the GI50 (KM12) was 0.137 µM (active) and the GI50 (SF-268) was 0.141 µM (active). The GI50 (Hs-578T) was 0.188 µM (active).
